In PubChem BioAssay (NCI):
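Interpolation was linear, between the two tested concentrations surrounding the appropriate level; five concentrations were tested over 48 hours in 96-well plates. At the GI50, growth is halved. TGI: concentration producing complete growth inhibition.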

Assays:
Assay in all cases: NCI-60 cell line screen, 48 h
M14 melanoma = tested on: M14 melanoma
TK-10 renal = tested on: TK-10 renal
MALME-3M melanoma = tested on: MALME-3M melanoma
UO-31 renal = tested on: UO-31 renal
OVCAR-4 ovarian = tested on: OVCAR-4 ovarian
HCT-116 colon = tested on: HCT-116 colon
SN12C renal = tested on: SN12C renal
OVCAR-5 ovarian = tested on: OVCAR-5 ovarian
A498 renal = tested on: A498 renal

Structure (SMILES) | GI50 (M14 melanoma) [µM] | TGI (M14 melanoma) [µM] | GI50 (TK-10 renal) [µM] | TGI (TK-10 renal) [µM] | GI50 (MALME-3M melanoma) [µM] | TGI (MALME-3M melanoma) [µM] | GI50 (UO-31 renal) [µM] | TGI (UO-31 renal) [µM] | GI50 (OVCAR-4 ovarian) [µM] | TGI (OVCAR-4 ovarian) [µM] | GI50 (HCT-116 colon) [µM] | TGI (HCT-116 colon) [µM] | GI50 (SN12C renal) [µM] | TGI (SN12C renal) [µM] | TGI (OVCAR-5 ovarian) [µM] | TGI (A498 renal) [µM]
N#C/C(=C/N1CCN(C(=O)c2ccco2)C1=S)C(=O)c1ccccc1 | 14.9 | 36.8 | 10.5 | 28.8 | 30.7 | > 100 | 10.2 | 32.5 | 29.8 | 93.2 | 9.12 | 57 | 8.64 | 25 | – | –
CC(C)CCCC(C)[C@H]1CCC2[C@H]3C(CC[C@@]21C)[C@@]1(C)CCC=C[C@]12C[C@@H]2[C@@H]3O (stereo partly specified) | – | > 100 | – | > 100 | – | > 100 | – | > 100 | – | > 100 | – | > 100 | – | > 100 | > 100 | > 100
Nc1ccn(C2(CO)C=C(CO)C(O)C2O)c(=O)n1 (stereo unspecified) | – | > 25.8 | – | > 25.8 | – | > 25.8 | – | > 25.8 | – | > 25.8 | – | > 25.8 | – | > 25.8 | – | > 25.8
COC(=O)/C(C=O)=C/Sc1ccccc1 | – | 42.6 | – | > 100 | – | – | – | 30.7 | – | > 100 | – | > 100 | – | 42.9 | 93.8 | –
COC(=O)OCC1OC(N2C(=O)NC(=O)C(Br)C2N=[N+]=[N-])CC1OC(=O)OC (stereo unspecified) | – | > 100 | – | > 100 | – | > 100 | – | > 100 | – | > 100 | – | > 100 | – | > 100 | > 100 | –
COc1cc2ccc3c4cc(OC)c(OC(C)C)cc4cnc3c2cc1OC | – | > 100 | – | > 100 | – | > 100 | – | > 100 | – | > 100 | – | > 100 | – | > 100 | > 100 | –
CN[C@@H](C)[C@H](NC)c1ccccc1 | – | > 100 | – | > 100 | – | > 100 | – | > 100 | – | – | – | > 100 | – | > 100 | – | –
COC(=O)/C(C)=C/[N+](=O)[O-] | – | 29.2 | – | 31.1 | – | 31.4 | – | 33.3 | – | 33.5 | – | 20.8 | – | 41 | 35.4 | 43.3
Nc1nc(CCl)nc(Nc2ccccc2)n1 | – | 32.8 | – | 83.4 | – | 33.7 | – | 67.3 | – | 32.1 | – | 43.5 | – | – | 43.4 | –
Cc1ccc(C2(O)CC(c3ccc([N+](=O)[O-])o3)=NN2C(=O)COc2ccc(Cl)cc2)cc1 (stereo unspecified) | – | 17.1 | – | 38.4 | – | 27.1 | – | 16.2 | – | 77.9 | – | 22.2 | – | 17.9 | > 94.9 | 22.2
C=CCNC(=O)N(CCC)CCCCC(NC(C)=O)C(=O)NCc1ccccc1 (stereo unspecified) | – | > 100 | – | > 100 | – | > 100 | – | > 100 | – | > 100 | – | – | – | > 100 | > 100 | > 100
CN(C)C(=S)/N=c1\ss/c(=N\C(=S)N(C)C)n1-c1ccc(Cl)c(Cl)c1 | – | > 100 | – | > 100 | – | > 100 | – | > 100 | – | > 100 | – | > 100 | – | > 100 | > 100 | > 100
COC(=O)/C(C#N)=C1\CCC(O)N1 (stereo unspecified) | – | > 100 | – | > 100 | – | > 100 | – | > 100 | – | > 100 | – | > 100 | – | > 100 | > 100 | –
C=C1C[C@]23CCC4C(C)(C)C(=O)CC[C@]4(C)C2C[C@H]1C(O)C3=O (stereo partly specified) | – | > 75 | – | – | – | > 75 | – | > 75 | – | > 75 | – | – | – | > 75 | – | > 75
COc1cc2cccc(N=Cc3cccc(OC)c3OC(C)C)c2cc1OC | – | 35.9 | – | 59 | – | 59.8 | – | > 100 | – | 52.4 | – | – | – | > 100 | > 100 | > 100
CC1(C)O/C(=C\c2ccccc2)C(=O)/C(=C/c2ccccc2)O1 | – | > 100 | – | > 100 | – | > 100 | – | > 100 | – | > 100 | – | > 100 | – | > 100 | 60.8 | > 100
CN1NC(=Nc2ccccc2)Sc2c1cnn(-c1ccccc1)c2=O | – | > 100 | – | > 100 | – | > 100 | – | > 100 | – | > 100 | – | > 100 | – | > 100 | – | > 100
